Measured values taken from patent EP4740948A1 (Dong Wha Pharm. Co., Ltd., priority 2023, dated 2025).

Experiments:
[1] = target: EZH1 (Homo sapiens, UniProt Q92800); experiment: AlphaLISA enzyme activity inhibition, EZH1; type: biochemical; conditions: 5nM test substance
Procedure: (§1) In order to confirm the EZH1 and/or EZH2 activity inhibitory effect of the 1,3-benzodioxole derivative compounds represented by chemical formula I of the present invention, the activity was measured using an AlphaLISA test method. The test substance dissolved in dimethylsulfoxide (DMSO) was diluted in a test solution (20 mM Tris pH 8.0, 0.1% BSA, 0.01% Triton X-100, 0.5 mM DTT) according to a final treatment concentration (5 nM or 10 nM) and mixed with EZH1 and EZH2, respectively, and then histone H3 peptide and S-adenosylmethionine (SAM) were added to initiate an enzyme reaction. An acceptor bead was added thereto after reaction for two hours and subjected to an additional reaction for one hour, after which a donor bead was added thereto. After an additional reaction for 30 minutes, the reaction was completed. An activity was measured using the Magellan program on a Spark10M instrument. DMSO was used as a control group, an inhibition rate of enzyme activity was calculated using a following equation, and the results thereof are shown in Table 1 below. [formula]

[2] = tested on: G401 cells; experiment: Cancer cell proliferation inhibition (Cell Counting Kit-8), rhabdoid tumor cell line; type: cell-based; conditions: Homo sapiens, G-401, 264 h, 1000 nM, cultured seven to 11 days; read-out: % inhibition rate G401
Text: (§2) Among solid cancer cells, in G401 cells in which expression of SMARCB1, which is a member of switch/sucrosenon-fermenting (SWI/SNF), is defective as a cell line of a rhabdoid tumor in which a therapeutic effect may be expected through dual inhibition of EZH1/2, and MKN-45 cells in which expression of ARID1A, which is a member of SWI/SNF, is defective as a gastric cancer cell line, a proliferation inhibitory ability of the 1,3-benzodioxole derivative compounds represented by chemical formula I of the present invention was evaluated.
(§3) Each cell line (G401 cell, MKN-45 cell, Lovo cell, SW-13 cell, MIA-PaCa-2, NCI-H1299) of Table 2 below was cultured using RPMI1640, McCoy's 5a, L-15 or DMEM containing 10% fetal bovine serum, and the cells were seeded into wells of a 96-well culture dish at 100 to 1,000 cells each, and a test substance 1000 nM was cultured for seven to 11 days after drug treatment. After the culture, the cells were measured according to a manufacturer's instructions using Cell Counting Kit-8, and a cell proliferation inhibitory effect (% inhibition rate) of the test substance was obtained.
(§4) The cell proliferation inhibitory effect (% inhibition rate) of the test substance was calculated using a following equation. % inhibition rate = {1−(testgroup/controlgroup)} X 100 [formula]

[3] = target: EZH2 (Homo sapiens, UniProt Q15910); experiment: AlphaLISA enzyme activity inhibition, EZH2; type: biochemical; conditions: 5nM test substance
Procedure: as §1

[4] = tested on: NCI-H1299 cells; experiment: Cancer cell proliferation inhibition (Cell Counting Kit-8), lung cancer cell line; type: cell-based; conditions: Homo sapiens, NCI-H1299, 264 h, 1000 nM, cultured seven to 11 days; read-out: % inhibition rate NCI-H129 9
Procedure: (§5) In addition, as one example of solid cancer in which an overexpression of EZH2 and a consequent disease association therebetween is reported, a proliferation inhibitory activity of the 1,3-benzodioxole derivative compounds represented by chemical formula I of the present invention was evaluated in Lovo cells as a colorectal cancer cell line, SW-13 cells as an adrenal cancer cell line, MIA-PaCa-2 cells as a pancreatic cancer cell line, and NCI-H1299 cells as a lung cancer cell line.
as §3, §4

[5] = tested on: SW-13 cells; experiment: Cancer cell proliferation inhibition (Cell Counting Kit-8), adrenal cancer cell line; type: cell-based; conditions: Homo sapiens, SW13, 264 h, 1000 nM, cultured seven to 11 days; read-out: % inhibition rate SW-13
Procedure: as §5, §3, §4

[6] = tested on: Lovo cells; experiment: Cancer cell proliferation inhibition (Cell Counting Kit-8), colorectal cancer cell line; type: cell-based; conditions: Homo sapiens, LoVo, 264 h, 1000 nM, cultured seven to 11 days; read-out: % inhibition rate LoVo
Procedure: as §5, §3, §4

[7] = tested on: MKN-45 cells; experiment: Cancer cell proliferation inhibition (Cell Counting Kit-8), gastric cancer cell line; type: cell-based; conditions: Homo sapiens, MKN-45, 264 h, 1000 nM, cultured seven to 11 days; read-out: % inhibition rate MKN -45
Text: as §2, §3, §4

[8] = tested on: MIA-PaCa-2 cells; experiment: Cancer cell proliferation inhibition (Cell Counting Kit-8), pancreatic cancer cell line; type: cell-based; conditions: Homo sapiens, MIA PaCa-2, 264 h, 1000 nM, cultured seven to 11 days; read-out: % inhibition rate MIA-Paca2
Procedure: as §5, §3, §4

EZH2, sequence (Q15910 whole entry, species assumed): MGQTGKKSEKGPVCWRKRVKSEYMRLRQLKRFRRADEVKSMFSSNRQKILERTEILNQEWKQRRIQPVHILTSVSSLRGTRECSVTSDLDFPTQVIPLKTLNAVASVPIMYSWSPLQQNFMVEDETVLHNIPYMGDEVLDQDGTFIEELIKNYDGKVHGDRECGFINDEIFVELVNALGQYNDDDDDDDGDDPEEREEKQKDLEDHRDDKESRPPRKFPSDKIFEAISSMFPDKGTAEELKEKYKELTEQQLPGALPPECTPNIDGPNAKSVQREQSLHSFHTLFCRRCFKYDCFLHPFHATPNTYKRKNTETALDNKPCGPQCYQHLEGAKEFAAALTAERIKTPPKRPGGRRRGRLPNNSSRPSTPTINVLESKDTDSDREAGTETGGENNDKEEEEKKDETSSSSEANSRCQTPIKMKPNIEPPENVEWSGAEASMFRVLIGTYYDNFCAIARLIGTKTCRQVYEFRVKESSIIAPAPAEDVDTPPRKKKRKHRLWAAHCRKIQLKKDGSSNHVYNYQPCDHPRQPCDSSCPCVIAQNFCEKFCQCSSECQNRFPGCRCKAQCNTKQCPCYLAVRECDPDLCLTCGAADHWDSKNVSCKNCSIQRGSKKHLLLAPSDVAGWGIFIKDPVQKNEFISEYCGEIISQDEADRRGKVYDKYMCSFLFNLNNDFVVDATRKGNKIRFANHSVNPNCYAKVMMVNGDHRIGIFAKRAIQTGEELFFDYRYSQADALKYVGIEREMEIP
EZH2, sequence (O75530 whole entry partner, species assumed): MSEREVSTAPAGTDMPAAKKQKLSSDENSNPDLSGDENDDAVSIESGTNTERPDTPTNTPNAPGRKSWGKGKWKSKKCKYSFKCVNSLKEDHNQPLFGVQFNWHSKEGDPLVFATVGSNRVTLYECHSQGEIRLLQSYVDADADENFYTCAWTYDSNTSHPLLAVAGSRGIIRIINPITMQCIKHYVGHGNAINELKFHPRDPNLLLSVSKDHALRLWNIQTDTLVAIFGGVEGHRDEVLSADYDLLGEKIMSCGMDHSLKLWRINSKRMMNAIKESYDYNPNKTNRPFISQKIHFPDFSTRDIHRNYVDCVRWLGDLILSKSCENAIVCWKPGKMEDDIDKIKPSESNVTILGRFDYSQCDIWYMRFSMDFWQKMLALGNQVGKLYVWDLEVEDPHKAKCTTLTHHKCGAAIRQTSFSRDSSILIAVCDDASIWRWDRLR
EZH2, sequence (Q15022 whole entry partner, species assumed): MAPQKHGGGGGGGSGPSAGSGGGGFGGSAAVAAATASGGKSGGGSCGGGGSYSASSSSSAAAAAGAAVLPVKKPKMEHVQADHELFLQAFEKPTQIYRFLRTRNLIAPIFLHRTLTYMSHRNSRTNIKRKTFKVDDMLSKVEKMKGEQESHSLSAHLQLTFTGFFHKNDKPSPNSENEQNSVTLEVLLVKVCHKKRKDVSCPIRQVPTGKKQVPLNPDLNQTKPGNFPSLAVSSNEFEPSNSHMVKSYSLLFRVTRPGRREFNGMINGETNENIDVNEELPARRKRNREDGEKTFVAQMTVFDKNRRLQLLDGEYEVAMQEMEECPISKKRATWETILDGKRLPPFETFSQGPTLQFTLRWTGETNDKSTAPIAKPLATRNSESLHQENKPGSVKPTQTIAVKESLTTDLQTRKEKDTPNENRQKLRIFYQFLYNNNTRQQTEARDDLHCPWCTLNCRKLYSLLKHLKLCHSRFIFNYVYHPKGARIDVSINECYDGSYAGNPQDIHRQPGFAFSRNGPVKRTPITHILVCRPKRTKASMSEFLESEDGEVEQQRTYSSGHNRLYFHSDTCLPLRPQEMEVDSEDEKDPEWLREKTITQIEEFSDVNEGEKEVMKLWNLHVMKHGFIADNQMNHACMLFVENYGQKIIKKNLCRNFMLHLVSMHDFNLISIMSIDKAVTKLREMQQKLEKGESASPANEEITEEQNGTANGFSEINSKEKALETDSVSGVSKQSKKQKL
EZH1, sequence (Q92800 whole entry, species assumed): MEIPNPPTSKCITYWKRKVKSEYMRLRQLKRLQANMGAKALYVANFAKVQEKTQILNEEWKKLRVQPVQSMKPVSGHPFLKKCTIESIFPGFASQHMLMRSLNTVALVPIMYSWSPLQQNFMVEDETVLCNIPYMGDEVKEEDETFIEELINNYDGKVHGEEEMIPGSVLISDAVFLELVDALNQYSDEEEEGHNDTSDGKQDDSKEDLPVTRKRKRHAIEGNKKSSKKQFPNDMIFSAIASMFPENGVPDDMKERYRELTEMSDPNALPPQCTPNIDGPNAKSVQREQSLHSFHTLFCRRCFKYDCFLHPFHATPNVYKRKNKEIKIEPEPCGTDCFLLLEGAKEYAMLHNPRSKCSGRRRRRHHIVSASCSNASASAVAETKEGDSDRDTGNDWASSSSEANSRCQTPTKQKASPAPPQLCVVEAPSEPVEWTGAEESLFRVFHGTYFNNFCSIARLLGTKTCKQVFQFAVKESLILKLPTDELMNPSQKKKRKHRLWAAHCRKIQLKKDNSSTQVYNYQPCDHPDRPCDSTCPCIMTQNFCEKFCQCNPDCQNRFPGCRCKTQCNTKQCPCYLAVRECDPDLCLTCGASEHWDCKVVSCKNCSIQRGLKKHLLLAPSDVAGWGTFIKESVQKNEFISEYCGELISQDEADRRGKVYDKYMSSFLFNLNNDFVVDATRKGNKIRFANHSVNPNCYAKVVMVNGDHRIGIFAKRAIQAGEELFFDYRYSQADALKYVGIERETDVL
EZH1, sequence (O75530 whole entry partner, species assumed): as the sequence (O75530 whole entry partner, species assumed) above
EZH1, sequence (Q15022 whole entry partner, species assumed): as the sequence (Q15022 whole entry partner, species assumed) above

SMILES | inhibition at 0.005 µM [1] | inhibition at 0.005 µM [3] | inhibition at 1 µM [2] | inhibition at 1 µM [4] | inhibition at 1 µM [5] | inhibition at 1 µM [6] | inhibition at 1 µM [7] | inhibition at 1 µM [8]
CSc1cc(C)[nH]c(=O)c1CNC(=O)c1cc(-c2ccc(N3CCC(F)(F)CC3)nc2)c2c(c1C)OC(C)([C@H]1CC[C@H](N(C)C)CC1)O2 (relative stereo) [Compound 3, 7-(6-(4,4-difluoropiperidin-1-yl)pyridin-3-yl)-2-(trans-4-(dimethylamino)cyclohexyl)-2,4-dimethyl-N-((6-methyl-4-(methylthio)-2-oxo-1,2-dihydropyridin-3-yl)methyl)benzo[d][1,3]dioxole-5-carboxamide] | 73.5% | 66.5% | 30 to 70% | 30 to 70% | 30 to 70% | 30 to 70% | ≤ 30% | ≤ 30%
CSc1cc(C)[nH]c(=O)c1CNC(=O)c1cc(-c2cnc(N3CCCCC3)nc2)c2c(c1C)OC(C)([C@H]1CC[C@H](N(C)C)CC1)O2 (relative stereo) [Compound 4, 2-(trans-4-(dimethylamino)cyclohexyl)-2,4-dimethyl-N-((6-methyl-4-(methylthio)-2-oxo-1,2-dihydropyridin-3-yl)methyl)-7-(2-(piperidin-1-yl)pyrimidin-5-yl)benzo[d][1,3]dioxole-5-carboxamide] | 74% | 77.4% | 30 to 70% | ≤ 30% | 30 to 70% | ≥ 70% | ≤ 30% | ≤ 30%
CSc1cc(C)[nH]c(=O)c1CNC(=O)c1cc(-c2ccc(CN3CCOCC3)cc2)c2c(c1C)OC(C)([C@H]1CC[C@H](N(C)C)CC1)O2 (relative stereo) [Compound 6, 2-(trans-4-(dimethylamino)cyclohexyl)-2,4-dimethyl-N-((6-methyl-4-(methylthio)-2-oxo-1,2-dihydropyridin-3-yl)methyl)-7-(4-(morpholinomethyl)phenyl)benzo[d][1,3]dioxole-5-carboxamide] | 86.7% | 98.2% | 30 to 70% | ≤ 30% | 30 to 70% | 30 to 70% | ≤ 30% | ≤ 30%
CSc1cc(C)[nH]c(=O)c1CNC(=O)c1cc(-c2cnc(N3CCC(F)(F)CC3)nc2)c2c(c1C)OC(C)([C@H]1CC[C@H](N(C)C)CC1)O2 (relative stereo) [Compound 8, 7-(2-(4,4-difluoropiperidin-1-yl)pyrimidin-5-yl)-2-(trans-4-(dimethylamino)cyclohexyl)-2,4-dimethyl-N-((6-methyl-4-(methylthio)-2-oxo-1,2-dihydropyridin-3-yl)methyl)benzo[d][1,3]dioxole-5-carboxamide] | 85.6% | 96.1% | 30 to 70% | ≤ 30% | 30 to 70% | 30 to 70% | 30 to 70% | ≤ 30%
CSc1cc(C)[nH]c(=O)c1CNC(=O)c1cc(-c2ccsc2)c2c(c1C)OC(C)([C@H]1CC[C@H](N(C)C)CC1)O2 (relative stereo) [Compound 11, 2-(trans-4-(dimethylamino)cyclohexyl)-2,4-dimethyl-N-((6-methyl-4-(methylthio)-2-oxo-1,2-dihydropyridin-3-yl)methyl)-7-(thiophen-3-yl)benzo[d][1,3]dioxole-5-carboxamide] | 82.9% | 98.9% | 30 to 70% | 30 to 70% | 30 to 70% | ≥ 70% | ≤ 30% | ≤ 30%
COc1ccc(F)cc1-c1cc(C(=O)NCc2c(SC)cc(C)[nH]c2=O)c(C)c2c1OC(C)([C@H]1CC[C@H](N(C)C)CC1)O2 (relative stereo) [Compound 12, 2-(trans-4-(dimethylamino)cyclohexyl)-7-(5-fluoro-2-methoxyphenyl)-2,4-dimethyl-N-((6-methyl-4-(methylthio)-2-oxo-1,2-dihydropyridin-3-yl)methyl)benzo[d][1,3]dioxole-5-carboxamide] | 80.5% | 99.2% | 30 to 70% | ≤ 30% | 30 to 70% | 30 to 70% | ≤ 30% | ≤ 30%

Now from value to compound, other results behind:

inhibition at 0.005 µM [1] | inhibition at 0.005 µM [3] | SMILES | inhibition at 1 µM [2] | inhibition at 1 µM [4] | inhibition at 1 µM [5] | inhibition at 1 µM [6] | inhibition at 1 µM [7] | inhibition at 1 µM [8]
95.1% | 99.5% | CSc1cc(C)[nH]c(=O)c1CNC(=O)c1cc(-c2cnc(N3CCCC3)nc2)c2c(c1C)OC(C)([C@H]1CC[C@H](N(C)C)CC1)O2 (relative stereo) [Compound 5, 2-(trans-4-(dimethylamino)cyclohexyl)-2,4-dimethyl-N-((6-methyl-4-(methylthio)-2-oxo-1,2-dihydropyridin-3-yl)methyl)-7-(2-(pyrrolidin-1-yl)pyrimidin-5-yl)benzo[d][1,3]dioxole-5-carboxamide] | 30 to 70% | ≤ 30% | 30 to 70% | 30 to 70% | ≤ 30% | ≤ 30%
81.4% | 96% | CSc1cc(C)[nH]c(=O)c1CNC(=O)c1cc(-c2ccc3c(ccn3C)c2)c2c(c1C)OC(C)([C@H]1CC[C@H](N(C)C)CC1)O2 (relative stereo) [Compound 7, 2-(trans-4-(dimethylamino)cyclohexyl)-2,4-dimethyl-7-(1-methyl-1H-indol-5-yl)-N-((6-methyl-4-(methylthio)-2-oxo-1,2-dihydropyridin-3-yl)methyl)benzo[d][1,3]dioxole-5-carboxamide] | 30 to 70% | ≤ 30% | 30 to 70% | 30 to 70% | 30 to 70% | ≤ 30%
86.1% | 98.6% | CSc1cc(C)[nH]c(=O)c1CNC(=O)c1cc(-c2ccc(N3CCOCC3)cc2)c2c(c1C)OC(C)([C@H]1CC[C@H](N(C)C)CC1)O2 (relative stereo) [Compound 9, 2-(trans-4-(dimethylamino)cyclohexyl)-2,4-dimethyl-N-((6-methyl-4-(methylthio)-2-oxo-1,2-dihydropyridin-3-yl)methyl)-7-(4-morpholinophenyl)benzo[d][1,3]dioxole-5-carboxamide] | 30 to 70% | ≤ 30% | 30 to 70% | 30 to 70% | ≤ 30% | ≤ 30%
82.8% | 98.7% | CSc1cc(C)[nH]c(=O)c1CNC(=O)c1cc(-c2ccc(F)cc2)c2c(c1C)OC(C)([C@H]1CC[C@H](N(C)C)CC1)O2 (relative stereo) [Compound 10, 2-(trans-4-(dimethylamino)cyclohexyl)-7-(4-fluorophenyl)-2,4-dimethyl-N-((6-methyl-4-(methylthio)-2-oxo-1,2-dihydropyridin-3-yl)methyl)benzo[d][1,3]dioxole-5-carboxamide] | 30 to 70% | ≤ 30% | 30 to 70% | ≥ 70% | ≤ 30% | ≤ 30%
